From US8691856B2 (Eli Lilly and Company, priority 2005, dated 2014)

Biological target: cloned human glucagon receptor (Homo sapiens (Human), UniProt P47871)
Experiment: Glucagon Receptor (hGlucR) Binding Assay
Description: The hGlucuR cDNA is subcloned into the expression plasmid phD (Trans-activated expression of fully gamma-carboxylated recombinant human protein C, an antithrombotic factor. Grinnell, B. W., Berg, D. T., Walls, J. and Yan, S. B. Bio/Technology 5: 1189-1192 (1987)). This plasmid DNA is transfected into 293 HEK cells and selected with 200 μg/mL Hygromycin.
Crude plasma membranes are prepared using cells from suspension culture. The cells are lysed on ice in hypotonic buffer containing 25 mM Tris HCL, pH 7.5, 1 mM MgCl2, DNAse1, 20 u/mL, and Roche Complete Inhibitors-without EDTA. The cell suspension is homogenized with a glass dounce homogenizer using a Teflon pestle for 25 strokes. The homogenate is centrifuged at 4 degrees C. at 1800×g for 15 mins. The supernate is collected and the pellet is resuspended in hypotonic buffer and rehomogenized. The mixture is centrifuged at 1800×g for 15 mins. The second supernate is combined with the first supernate. The combined supernates are recentrifuged at 1800×g for 15 mins to clarify. The clarified supernate is transferred to high speed tubes and centrifuged at 25000×g for 30 minutes at 4 degrees C. […]
The binding buffer contains 25 mM Hepes, pH 7.4, 2.5 mM CaCl2, 1 mM MgCl2, 0.1% fatty acid free BSA, (ICN), 0.003% tween-20, and Roche Complete Inhibitors without EDTA. […] Plates are read with a MicroBeta after 14 hours of settling time at room temp. […]

Chain of cloned human glucagon receptor (P47871 26-477): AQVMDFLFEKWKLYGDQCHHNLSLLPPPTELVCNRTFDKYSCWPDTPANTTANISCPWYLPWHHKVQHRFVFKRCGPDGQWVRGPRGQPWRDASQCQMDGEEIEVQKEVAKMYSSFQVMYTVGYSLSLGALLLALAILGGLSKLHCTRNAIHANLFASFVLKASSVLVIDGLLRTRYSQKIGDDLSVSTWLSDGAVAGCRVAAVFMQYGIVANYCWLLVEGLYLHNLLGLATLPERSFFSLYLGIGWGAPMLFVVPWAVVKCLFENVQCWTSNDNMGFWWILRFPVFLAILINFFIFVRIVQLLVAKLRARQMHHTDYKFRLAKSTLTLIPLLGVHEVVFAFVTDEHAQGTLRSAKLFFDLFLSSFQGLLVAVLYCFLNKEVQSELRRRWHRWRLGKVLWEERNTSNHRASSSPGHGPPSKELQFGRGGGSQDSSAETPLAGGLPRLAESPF

Ki: 0.0933 µM
Structure (SMILES): Cc1cc(OC(CCC(C)(C)C)c2ccc(C(=O)Nc3nnn[nH]3)cc2)cc(C)c1-c1ccc(C(F)(F)F)cc1 (stereo not shown)
